# Laboratory results published in publication PMC8502973 (Frontiers in Physiology, 2021).
# pEC50: −log10 of the molar value. Entries after “also recorded” stand apart in the source; their conditions may differ. Where two headings read alike, the source gives them in different places. Positions of bridges follow the written chain, without caps; N, C: chain ends. Residues, ends and D or L forms follow the SMILES beside them. Groups on a side chain read outwards from the residue. *: point of attachment. PEG8 = NCCOCCOCCOCCOCCOCCOCCOCCOCCC(=O)O; Palmitoyl = CCCCCCCCCCCCCCCC(=O)*
# Key:
# human V2 receptor = molecular target: T1, human V2 receptor (Homo sapiens, UniProt P30518); test: V2R agonist activity, cAMP production by HTRF, stably transfected CHO cells; format: cell-based; settings: HTRF detection, read-out: hV2R, EC50
# T1 construct: expressed in transfected cells; host or cells: CHO cells
# Protocol: V2R: Evaluation of the agonist activity of compounds at the human V2 receptor expressed in stably transfected CHO cells was conducted by measuring their effects on cAMP production using the HTRF detection method ([Cotte et al., 1998]).
# [1] = Dose escalation: kaolin intake (pica, nausea/visceral malaise); format: in vivo, male DIO Sprague Dawley rats
# Protocol: (§1) Sprague Dawley rats (male, ∼4 weeks of age, 51–75 g body weight) were switched from standard chow to a high fat diet (Research Diets, Diet # D12492, 60, 20, 20%kcal from fat, protein, and carbohydrate, respectively, 5.21 kcal/g; stored at −20°C). The rats were maintained on this diet for approximately 15 weeks prior to the start of experiments to develop a diet-induced overweight (DIO) model. Animals were individually housed on a 12 h/12 h light/dark cycle (lights on at 04:00 h) in a temperature (23°C) and humidity (mean 50%, SD 10%) controlled room. All body weight measurements were made just prior to the start of the dark cycle.
# Sequential rounds of a 3-day baseline phase (vehicle treated), a 3-day treatment phase, and a washout phase (2–5 days as necessary) were tested. […] High fat diet was accessible to the rats from all but the last 6 h of the light cycle and water was provided ad libitum. This daily period of food restriction was used to prevent incidental feeding in the event animals were disturbed from their sleep by noise from surrounding rooms. To assess a potential pica response (nausea/visceral malaise) in animals, powdered kaolin (Sigma-Aldrich, K1512) was made available on drug treatment days with a restriction period similar to the high fat diet. Prior to the first experiment, rats were provided access to kaolin for 2 days so that they could familiarize themselves with it prior to start of testing. Food and kaolin intake were continuously recorded using AccuScan DietMax (currently OmniTech Electronics, Inc., Diet System) cages. The high fat diet was compressed in the food tray to form a solid block of food. This allows for more accurate meal size measurements by preventing the animals from removing entire pellets at time. All food and kaolin intake data were binned into 15-min intervals for analysis and the start of the 24-h food intake period aligned to the lights turning off in the animal room. Body weight was recorded, and treatment injections were administered just prior to the start of the dark cycle.
# Toxicity / mortality = format: in vivo
# [2] = Long-term (28-day) drug intervention: body weight; format: in vivo, male DIO Sprague Dawley rats; settings: treatment days 9-28
# Protocol: as §1
# (§2) Male DIO Sprague Dawley rats (n = 24) were generated as outlined above and were 644.5 g (50 g) at the start of drug treatment. The animals were divided into three treatment groups (n = 8 each) balanced for body weight, body weight gain during baseline, food intake, and Lee Index [body weight^(1/3)/snout to anus length (mm)] ([Lee, 1929]; [Simson and Gold, 1982]) as an indicator of adiposity (Figure 2). In a subset of the animals (n = 5 per group, balanced for prior mentioned criteria), Mini-Mitter transponders (PDT-4000 E-Mitter, Respironics Inc.) were implanted posterior to the left scapula at least 9 days prior to start of baseline measures to ensure sufficient recovery time. Body temperature and gross motor activity were continuously recorded via these transponders. […] High fat diet and water were provided ad libitum and intake was recorded with daily hopper and water bottle weighs at time of body weight assessment just prior to drug administration. Blood samples were taken at start of intervention by tail vein bleeding and via cardiac puncture under an isoflurane induced surgical plane of anesthesia at euthanasia. Animals were euthanized on treatment day 29, 4 h after receiving a dose of their assigned treatment, via decapitation under isoflurane anesthesia immediately following blood draw. Body composition was assessed on carcasses.
# From treatment day 8 on the doses were maintained to assess long-term efficacy at a therapeutically meaningful dose.
# [3] = Long-term: gross motor activity and body temperature (Mini-Mitter transponders); format: in vivo, male DIO Sprague Dawley rats; settings: 28-day study, n = 5 per group; first 12 days analysed
# From the text: as §2
# For comparisons of mean longitudinal changes in body temperature and activity, only the first 12 days of treatment, divided into three 4-day phases, were included in the analysis. These 4-day phases allowed for analyses to consider the ASK1476 dose titration.
# [4] = Long-term: hormone and metabolic blood parameters; format: in vivo, male DIO Sprague Dawley rats
# From the text: as §2, with “Animals were euthanized on treatment day 29, 4 h after receiving a dose of their assigned treatment, via decapitation under isoflurane anesthesia immediately following blood draw.” left out
# Commercially available enzyme-linked immunosorbent assays (ELISA) were used for quantitative assessment of leptin (MilliporeSigma, Burlington, MA) and insulin (MilliporeSigma, Burlington, MA); all with intra-assay CV < 4%. […]
# [5] = ref Modi et al., 2016, cited from earlier work
# From the text: This property allows for reduction of the free fraction of ASK1476 available for enzymatic degradation. The pharmacokinetics study protocol for ASK1476 in mice and rats was described before ([Modi et al., 2016]).
# [6] = sc and iv, rodents; ref Modi et al., 2016; cited from earlier work
# T1 sequence (P30518 whole entry): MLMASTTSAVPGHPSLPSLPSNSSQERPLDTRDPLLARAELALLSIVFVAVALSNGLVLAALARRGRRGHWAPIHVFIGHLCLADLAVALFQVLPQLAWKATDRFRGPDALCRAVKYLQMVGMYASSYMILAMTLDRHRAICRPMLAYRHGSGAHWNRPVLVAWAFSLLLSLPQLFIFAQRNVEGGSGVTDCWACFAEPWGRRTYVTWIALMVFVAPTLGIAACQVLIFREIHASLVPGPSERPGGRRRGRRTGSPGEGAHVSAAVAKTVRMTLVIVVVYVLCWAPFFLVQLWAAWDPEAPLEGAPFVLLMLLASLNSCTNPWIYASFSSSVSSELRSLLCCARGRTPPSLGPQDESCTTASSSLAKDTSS
smiles,measurement,setting,value
CCCCCCCCCCCCCCCC(=O)NCCOCCOCCOCCOCCOCCOCCOCCOCCC(=O)NCCCC[C@H](NC(=O)CNC(=O)[C@@H]1CSSC[C@H](N)C(=O)N[C@@H](Cc2ccc(O)cc2)C(=O)N[C@@H]([C@@H](C)CC)C(=O)N[C@@H](CCC(N)=O)C(=O)N[C@@H](CC(N)=O)C(=O)N1)C(=O)NCC(N)=O [ASK1476] (H-CYIQNCGK([PEG8-Palmitoyl])G-NH2; disulfide 1-6),pEC50,human V2 receptor,9.44
same,relationship between kaolin consumption and baseline normalized food intake,"[1]; ASK1476 6, 15, 30, 60, 120 and 300 nmol/kg",no significant association
same,visceral malaise signal (notably high kaolin intake in a few animals),[1]; ASK1476 dosing spectrum,may result in visceral malaise in a subset of animals
same,kaolin intake of several animals at higher doses,"[1]; ASK1476 ≥ 30 nmol/kg/d, several animals, not seen with OXT",> 4 g/day
same,"kaolin intake, trend with dose","[1]; increasing ASK1476 doses, not significant",increasing trend
same,kaolin intake at low doses,"[1]; low doses, sc once daily",below 4 g/d
same,"kaolin intake, effect of treatment","[1]; sc once daily, ASK1476 6-300 nmol/kg F(1.80, 12.59) = 2.26, p = 0.148, OXT 20-1200 nmol/kg F(1.51, 10.52) = 1.73, p = 0.223",no significant effect of treatment
same,death,"Toxicity / mortality; 150 nmol/kg intraperitoneal, unpublished dosing experiment",death of a rat
same,death,"Toxicity / mortality; 300 nmol/kg daily sc, after third dose, cause of death not established",one rat was found dead
same,weight stability during final 20 days,[2],remained weight stable
same,locomotor activity or body temperature,[3],no effects were detected on locomotor activity or body temperature; also recorded: did not find any evidence
same,"serum ALT, difference vs vehicle","[4]; ASK1476, 95% CI −2.1 to −13.2, p = 0.006",−7.6 U/L
same,"ALT, post-treatment","[4]; after 28-day Tx, serum, n = 8, Mean ± SD, ASK1476 ** p < 0.01 vs vehicle, ANOVA p 0.009",0.440.06** μmol/(sL)
same,half-life vs OXT,"[5]; iv, rats, compared to OXT",extended half-life
same,plasma clearance vs OXT,"[5]; iv, rats, compared to OXT",reduced plasma clearance
same,steady-state volume of distribution vs OXT,"[5]; iv, rats, compared to OXT",increased steady-state volume of distribution
same,brain to plasma concentration ratio (distribution),"[5]; sc, depot formulation",almost exclusive compartmentalization of the molecule to plasma
same,concentrations in the central compartments,"[5]; sc, depot formulation",only minimal concentrations detectable
same,plasma exposure,"[5]; sc, depot formulation",prolonged exposure in the plasma
same,total maximal plasma concentration (Cmax),"[5]; sc, mice, at 2 h post-dose",improved total maximal plasma concentration (Cmax)
same,half-life,"[5]; sc, mice",extended half-life
same,half-life vs OXT,[6],increased half-life
same,plasma protein binding vs OXT,[6],increased plasma protein binding
